{
  "source": "patent US8519154B2",
  "about": "“Method for treatment of bronchial asthma” (Council of Scientific & Industrial Research, priority 2011, dated 2013)",
  "key": {"PDE-4": {"system": "PDE-4", "assay": "Phosphodiesterase 4 assay, [3H]cAMP SPA enzyme assay, enzyme preparation from rat heart", "assay_type": "biochemical", "protocol": "For phosphodiesterase (PDE-4) assay, enzyme preparations were performed from rat heart (Ko et al 2004, Biochemical Pharmacology 68:2087-2094). Heart was excised from anesthetized rat and transfer into normal saline solution. Heart weighing 687 mg was taken and homogenized in 2.5 volumes of homogenization buffer containing 20 mM Tris-Cl, 50 mM NaCl, 2 mM EDTA, 0.1 mM PMSF, […], protease inhibitors 1 μg/μl. The homogenate was centrifuged at 500×g for 5 minute at 4° C. Then sup was taken for further centrifuged at 40,000×g for 30 minute (ultra centrifugation). After centrifugation supernatant was collected for phosphodiesterase assay. Protein concentration was estimated and for each assay, 2.5 μg protein (PDE enzyme preparation) was used. All compounds tested for PDE 4 activity were dissolved in DMSO.\nPhosphodiesterase 4 assay: Phosphodiesterase 4 assay was conducted with [^3H] cAMP SPA enzyme assay (GE Amersham, UK) using 2.5 μg enzyme preparation for each well. Into each well 60 μl water, 10 μl assay buffer supplied with the kit, 10 μl compound (inhibitor), 10 μl PDE enzyme or homogenizing buffer (blank) and […] radiolabel led cAMP ([^3H]cAMP, GE Amersham, UK) were added. To check activity of the enzyme without inhibitor (compound) 10 μl DMSO was added in place of inhibitor to a separate well. The reaction mixtures were incubated for […] at 30° C. The reaction was stopped by adding 50 μl SPA bead supplied with the kit. It was then mixed well and allowed to stand at room temperature for 20 min. Breakdown of cAMP in each tube was monitored by β counter. The reading in each tube was obtained in counts per minute (CPM). The reading of the blank tube (without enzyme) was subtracted from each tube to normalize the counts. The enzyme activity was calculated by considering the CPM reading without any inhibitor (compound) as 100."}, "mice [1]": {"system": "mice", "assay": "Electric shock induced convulsions", "assay_type": "in vivo, Swiss mice", "protocol": "Convulsion were induced by a single electroshock (50 Hz in frequency, 0.5 ms pulse width, 50 mA current for 0.3 s) applied through bi-polar electrodes attached to the ear pinna on both side using a pulse generator (Ugo Basile, Italy). The convulsive activity (determined by loss of tonic extensor seizure) was recorded in control (untreated) and Compound I were treated (before electro-shock application) animals [Achliya, G S, Wadodkar, S G, Darle, A K., Evaluation of CNS activity of Bramhi Ghrita. Indian J. Pharmacol. 37 (2005) 33-36].\nAnti-convulsant activity was measured by electric shock induced seizure. Five Swiss mice were used for one dose of drug. Convulsion were induced by a single electroshock (50 Hz in frequency, 0.5 ms pulse width, 50 mA current for 0.3 s) applied through bi-polar electrodes attached to the ear pinna on both side by a pulse generator (Ugo Basile, Italy) Test drug were administered orally 60 min before electroshock application, and convulsive activity was determined by loss of tonic extensor seizure."}, "mice [2]": {"system": "mice", "assay": "Pentobarbitone induced sleeping time", "assay_type": "in vivo", "settings": "pentobarbitone 50 mg/kg (i.p) alone", "protocol": "Compound I was administered to mice perorally. […] were administered with sodium pentobarbitone (50 mg/kg, ip). Sleeping time (No righting reflex) (in min) was determined for the control (untreated) and D8 treated animals [Montilla, M P., Cabo, J., Navarro, M C., Risco, S., Jimmenez R S., Aneires, J., The protective and curative action of Withania frutescens leaf extract against CCl4-induced hepatotoxicity. Phytother. Res. 4 (1990) 212-215]."}},
  "data": [
    {"smiles": "COc1cc(COC(C)=O)cc2c1[nH]c1ccccc12", "note": "[V]", "values": [
      {"measurement": "% of Inhibition", "setting": "PDE-4; 0.1 μg/ml", "result": 0, "unit": "%"},
      {"measurement": "% of Inhibition", "setting": "PDE-4; 1 μg/ml", "result": 11.80, "unit": "%"},
      {"measurement": "% of Inhibition", "setting": "PDE-4; 10 μg/ml", "result": 44.2, "unit": "%"}
    ]},
    {"smiles": "CCC1(c2ccccc2)C(=O)NC(=O)NC1=O", "note": "[Phenobarbitone, reference compound]", "values": [
      {"measurement": "Convulsions Clonic", "setting": "mice [1]; 30 mg/kg p.o.", "result": "0/5"},
      {"measurement": "Convulsions Tonic", "setting": "mice [1]; 30 mg/kg p.o.", "result": "0/5"},
      {"measurement": "Mortality", "setting": "mice [1]; 30 mg/kg p.o.", "result": "0/5"},
      {"measurement": "anti-convulsant activity", "setting": "mice [1]; positive control", "result": "significant anti-convulsant activity"}
    ]},
    {"smiles": "CCCC(C)C1(CC)C(=O)NC(=O)NC1=O", "note": "(centres unmarked) [Pentobarbitone]", "values": [
      {"measurement": "Sleeping Time (Minutes ± SEM)", "setting": "mice [2]", "result": "75.6 ± 9.4", "unit": "min"}
    ]}
  ]
}
